Results on 2 compounds are retold here after US20200061150A1, “METHOD OF INDUCING SELECTIVE PROSTATE GLANDULAR PHARMACO-ABLATION WITH SPARING OF NERVES AND PRESERVATION OF SEXUAL FUNCTION” (Nymox Corporation, priority 2018, published 2020).

One series concerns rat prostate. The experiment in a line: Prostate volume in rats after intraprostatic (whole gland) injection. Format: in vivo, Sprague-Dawley rats. The following applies: control injection 0.5 mL HCl in water pH 3.0-5.0, 24 hr-10 days. The procedure: (§1) Two month old Sprague-Dawley rats (n=268) weighing 200 to 300 g, housed in groups of 2-5 per cage at room temperature (24-26° C.), with standard unrestricted diet and water, were anesthetized with ether and underwent open laparoscopic injections, using sterile precautions and sterile techniques, without antibiotics, of 0.3 mL of FT 0.1-2.0 mg/mL in phosphate buffered saline (PBS) pH 7.4, administered by #26 gauge sterile needles attached to sterile syringes. The animals received a “whole gland” injection in an amount roughly 20 times the amount previously administered to humans. […] The rats were daily observed and painlessly sacrificed after post-treatment intervals of 24 hours to 12 months under either anesthesia.
(§2) Sub-groups of rats received repeated injections (2×-8×, on a once weekly basis) (Table 1).
(§3) Apoptosis was evaluated microscopically in H&E stained sections, including rats sacrificed after 24, 48, and 72 hours, 4-8 days, and 1, 3, 6, and 12 months. […] TUNEL staining was assessed in 21 animals (72 hours; 7 days, post-treatment). Prostate volume (calculated by approximation to a sphere using the mean of 8 perpendicular diameters (2 per section at 90 degrees; on four sections) and calculations of 4/3 π(D/2)^3) were assessed in all animals and all controls. […]

Series [1] relates to rat prostate glandular epithelium, nerves, stroma, vessels. The experiment in a line: Prostate histology (H&E, Bielschowsky silver, TUNEL) in treated rats. It is filed as in vivo, Sprague-Dawley rats. Here is the method: as §1
Prostate glands were removed, bisected, and immersed in 10% formalin solution, and subsequently embedded in paraffin, sectioned, and stained with (1) hematoxylin-eosin (H&E); (2) Bielschowsky silver method for nerve fibers; and (3) immunohistochemical TUNEL staining. TUNEL (Terminal deoxynucleotidyl transferase (dUTP) nick end labeling) detects DNA fragmentation by labeling the 3′-hydroxyl termini in the double-stand DNA breaks generated during apoptosis. Prostate cell lines (PC3 and LNCAP) were treated with FT 0.001 or 0.25 mg/mL in 6, 24, and 48 well plates and harvested and pelleted at 0, 12, 24, and 48 hours. […] The same treated cell lines under the same conditions were also stained in vitro after treatment using Annexin V immunofluorescence methods and viewed under ultraviolet light, and cell loss in vitro was assessed quantitatively (Multitox-Fluor, Promega). […]
as §3

For series [2] the following is noted: in vivo.
Text: as §2

Counter-ions that a name gives are not always drawn. Like-named read-outs stand apart in the source and are kept apart here. No end group written: not given here.

As for `Cl` [HCl, reference compound], the “Prostate Volume mm^3-Mean (SD)” value in the series with rat prostate is listed as 859.7 (278.1) mm^3. Also, in series [1] (HCl pH 3.0-5.0 injected, involving <5% of the cross-sectional area), the “rats with focal ischemic or hemorrhagic infarctions and necrosis” value was 2/12.
With “IDQQVLSRIKLEIKRCL [FT, Ile-Asp-Gln-Gln-Val-Leu-Ser-Arg-Ile-Lys-Leu-Glu-Ile-Lys-Arg-Cys-Leu]”, in series [1] (all time intervals), the “nerves and blood vessels” value is listed as “intact”. Also, the nerve histology result in series [1] (all time points including 6 months and 1 year) is “normal appearing nerves”. The toxic effects entry in series [2] (dog), in series [2] (rabbit) and in series [2] (rat) was “no toxic effects” in each case.
